In experiment [1] the test system is cultured human mast cells (CHMC). The experiment in a line: CHMC low cell density IgE activation: tryptase assay. Format: cell-based. The following applies: anti-IgE. The procedure, abridged: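 Low-density CHMC assay: donor-adjusted 1000-1500 cells/well, MT buffer, 1 hr 37° C preincubation; anti-IgE stimulus 30 min 37° C versus MT-only controls; supernatant tryptase by substrate, 30 min RT.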

For experiment [2] the test system is unchanged. The experiment in a line: CHMC low cell density ionomycin activation: tryptase assay. In kind it is cell-based.

For orientation: IC50 means the concentration that inhibits the measured activity by half. Low values mean higher potency, high ones lower potency.

Take `CNC(=O)Cn1ncc2ccc(Nc3ncc(F)c(Nc4ccc5cnn(CC(=O)NC)c5c4)n3)cc21` [R935206, N2,N4-Bis[1-(N-methylaminocarbonyl)methyl-indazoline-6-yl]-5-fluoro-2,4-pyrimidinediamine]: the IC50 in experiment [1] is 4.71 µM; in experiment [2] it was above 10 µM.
For `COC(=O)c1cc(COc2cccc(Nc3ncc(F)c(Nc4ccc5c(c4)OCCO5)n3)c2)co1` [R935207, N4-(3,4-ethylenedioxyphenyl)-5-fluoro-N2-[3-(2-methoxycarbonyl-fur-4-yl)methyleneoxyphenyl]-2,4-pyrimidinediamine], the concentration for half-maximal inhibition (IC50) in experiment [1] and in experiment [2] was above 10 µM in each case.
Take `COC(=O)Cn1ncc2ccc(Nc3ncc(F)c(Nc4ccc5c(c4)OCCO5)n3)cc21` [R935208, N4-(3,4-ethylenedioxyphenyl)-5-fluoro-N2-[1-(methoxycarbonyl)methyl-indazoline-6-yl]-2,4-pyrimidinediamine]: the IC50 is 1.27 µM in experiment [1] and above 10 µM in experiment [2].
Regarding `COC(=O)COc1ccc(Nc2ncc(F)c(Nc3ccc4c(cnn4C)c3)n2)cc1` [R935209, 5-Fluoro-N2-[4-(methoxycarbonylmethyleneoxy)phenyl]-N4-(1-methyl-indazoline-5-yl)-2,4-pyrimidinediamine], the 50% inhibitory concentration (IC50) was found to be 0.526 µM in experiment [1] and 1.03 µM in experiment [2].
In the case of `COC(=O)Cn1ncc2cc(Nc3ncc(F)c(Nc4ccc5c(cnn5CC(=O)OC)c4)n3)ccc21` [R935211, N2,N4-Bis[1-(methoxycarbonyl)methyl-indazoline-5-yl]-5-fluoro-2,4-pyrimidinediamine], the IC50 in experiment [1] is 1.24 µM; in experiment [2], above 10 µM.
On to `CNC(=O)Cn1ncc2ccc(Nc3ncc(F)c(Nc4ccc5c(c4)OCCO5)n3)cc21` [R935212, N4-(3,4-ethylenedioxyphenyl)-5-fluoro-N2-[1-(N-methylaminocarbonyl)methyl-indazoline-6-yl]-2,4-pyrimidinediamine], for which the IC50 in experiment [1] was 1.43 µM; in experiment [2], above 10 µM.
Consider `CNC(=O)c1cc(COc2cccc(Nc3ncc(F)c(Nc4ccc5c(c4)OCCO5)n3)c2)co1` [R935213, N4-(3,4-ethylenedioxyphenyl)-5-fluoro-N2-[3-(2-(N-methylamino)carbonyl-fur-4-yl)methyleneoxyphenyl]-2,4-pyrimidinediamine], for which the IC50 worked out at 0.619 µM in experiment [1] and 10 µM in experiment [2].
For `COc1cc(Nc2ncc(F)c(Nc3ccc4c(cnn4C)c3)n2)cc(OC)c1` [R935214, 5-Fluoro-N2-(3,5-dimethoxyphenyl)-N4-(1-methyl-indazoline-5-yl)-2,4-pyrimidinediamine], the IC50 turned out to be 0.453 µM in experiment [1] and 5.5 µM in experiment [2].
As to `COC(=O)Cn1ncc2ccc(Nc3nc(Nc4ccc(OC(C)C)cc4)ncc3F)cc21` [R935218, 5-Fluoro-N2-(4-isopropoxyphenyl)-N4-[1-(methoxycarbonyl)methyl-indazoline-6-yl]-2,4-pyrimidinediamine], the half-maximal inhibitory concentration (IC50) in experiment [1] is 4.71 µM; in experiment [2], above 10 µM.
On the same counts, the results for `COC(=O)Cn1ncc2ccc(Nc3nc(Nc4ccc5c(c4)OCCO5)ncc3F)cc21` [R935219, N2-(3,4-Ethylenedioxyphenyl)-5-fluoro-N4-[1-(methoxycarbonyl)methyl-indazoline-6-yl]-2,4-pyrimidinediamine] are 5.41 µM and above 10 µM.
As to `COC(=O)Cn1ncc2ccc(Nc3nc(Nc4cccc(O)c4)ncc3F)cc21` [R935220, 5-Fluoro-N2-(3-hydroxyphenyl)-N4-[1-(methoxycarbonyl)methyl-indazoline-6-yl]-2,4-pyrimidinediamine], the results for the IC50 in experiment [1] and in experiment [2] were 3.79 µM and above 10 µM, respectively.
`CNC(=O)Cn1ncc2cc(Nc3ncc(F)c(Nc4ccc5c(c4)OCCO5)n3)ccc21` [R935240, N4-(3,4-Ethylenedioxyphenyl)-5-fluoro-N2-[1-(N-methylaminocarbonyl)methyl-indazoline-5-yl]-2,4-pyrimidinediamine]: the IC50 is 0.606 µM in experiment [1] and above 10 µM in experiment [2].
On to `COC(=O)Cn1ncc2cc(Nc3nc(Nc4ccc(OC(C)C)cc4)ncc3F)ccc21` [R935242, 5-Fluoro-N2-(4-isopropoxyphenyl)-N4-[1-(methoxycarbonyl)methyl-indazoline-5-yl]-2,4-pyrimidinediamine], for which the IC50 in experiment [1] is 2.85 µM; in experiment [2], above 10 µM.
Regarding `OCCn1ncc2ccc(Nc3ncc(F)c(Nc4ccc5c(c4)OCCO5)n3)cc21` [R935248, N4-(3,4-Ethylenedioxyphenyl)-5-fluoro-N2-[1-(2-hydroxyethyl)indazoline-6-yl]-2,4-pyrimidinediamine], the IC50 in experiment [1] was 1.1 µM; in experiment [2] it was above 10 µM.
`COC(=O)Cn1ncc2cc(Nc3nc(Nc4ccc5c(c4)OCCO5)ncc3F)ccc21` [R935249, N2-(3,4-Ethylenedioxyphenyl)-5-fluoro-N4-[1-(methoxycarbonyl)methyl-indazoline-5-yl]-2,4-pyrimidinediamine]: the IC50 in experiment [1] is 1.1 µM; in experiment [2], above 10 µM.
For `COC(=O)Cn1ncc2cc(Nc3nc(Nc4cccc(O)c4)ncc3F)ccc21` [R935250, 5-Fluoro-N2-(3-hydroxyphenyl)-N4-[1-(methoxycarbonyl)methyl-indazoline-5-yl]-2,4-pyrimidinediamine], the figures for the IC50 in experiment [1] and in experiment [2] were 1.1 µM and above 10 µM, respectively.
As to `CC(C)Oc1ccc(Nc2nc(Nc3ccc4c(cnn4CCO)c3)ncc2F)cc1` [R935255, 5-Fluoro-N2-[1-(2-hydroxyethyl)indazoline-5-yl]-N4-(4-isopropoxyphenyl)-2,4-pyrimidinediamine], the figures for the IC50 in experiment [1] and in experiment [2] were 0.374 µM and above 10 µM, respectively.
`OCCn1ncc2cc(Nc3ncc(F)c(Nc4cccc(O)c4)n3)ccc21` [R935256, 5-Fluoro-N2-[1-(2-hydroxyethyl)indazoline-5-yl]-N4-(3-hydroxyphenyl)-2,4-pyrimidinediamine]: the concentration for half-maximal inhibition (IC50) was 0.324 µM in experiment [1] and above 10 µM in experiment [2].
`OCCn1ncc2cc(Nc3nc(Nc4ccc5c(c4)OCCO5)ncc3F)ccc21` [R935258, N2-(3,4-Ethylenedioxyphenyl)-5-fluoro-N4-[1-(2-hydroxyethyl)indazoline-5-yl]-2,4-pyrimidinediamine]: the IC50 was 1.19 µM in experiment [1] and above 10 µM in experiment [2].
On to `OCCn1ncc2cc(Nc3nc(Nc4cccc(O)c4)ncc3F)ccc21` [R935259, 5-Fluoro-N4-[1-(2-hydroxyethyl)indazoline-5-yl]-N2-(3-hydroxyphenyl)-2,4-pyrimidinediamine], for which the IC50 was 1.78 µM in experiment [1] and above 10 µM in experiment [2].
On to `Fc1cnc(Nc2ccc3c(c2)OCCO3)nc1Nc1ccc2cn[nH]c2c1` [R935261, N2-(3,4-Ethylenedioxyphenyl)-5-fluoro-N4-(indazoline-6-yl)-2,4-pyrimidinediamine], for which the IC50 was 0.391 µM in experiment [1] and above 10 µM in experiment [2].
On to `Oc1cccc(Nc2ncc(F)c(Nc3ccc4cn[nH]c4c3)n2)c1` [R935262, 5-Fluoro-N2-(3-hydroxyphenyl)-N4-(indazoline-6-yl)-2,4-pyrimidinediamine], for which the values for the IC50 in experiment [1] and in experiment [2] were 0.516 µM and above 10 µM, respectively.
The like results for `Cc1cc(Nc2ncc(F)c(Nc3ccc4cn[nH]c4c3)n2)cc(Cl)c1O` [R935264, N2-(3-Chloro-4-hydroxy-3-methylphenyl)-5-fluoro-N4-(indazoline-6-yl)-2,4-pyrimidinediamine] were, in that order, 0.135 µM and above 10 µM.
`CNC(=O)COc1cccc(Nc2ncc(F)c(Nc3ccc4[nH]ncc4c3)n2)c1` [R935279, 5-Fluoro-N4-(indazoline-5-yl)-N2-[3-(N-methylaminocarbonylmethyleneoxy)phenyl]-2,4-pyrimidinediamine]: the IC50 in experiment [1] is 0.889 µM; in experiment [2], above 10 µM.
Take `CNC(=O)COc1cccc(Nc2ncc(F)c(Nn3cccc3)n2)c1` [R935281, 5-Fluoro-N2-[3-(N-methylaminocarbonylmethyleneoxy)phenyl]-N4-(1H-pyrrol-1-yl)-2,4-pyrimidinediamine]: the IC50 in experiment [1] was 1.4 µM; in experiment [2] it was above 10 µM.
Consider `CCOC(=O)CCn1ncc2ccc(Nc3ncc(F)c(Nc4ccc5c(c4)OCCO5)n3)cc21` [R935286, N2-[1-(2-ethoxycarbonylethyl)indazoline-6-yl]-N4-(3,4-ethylenedioxyphenyl)-5-fluoro-2,4-pyrimidinediamine], for which the figures for the IC50 in experiment [1] and in experiment [2] were 1.16 µM and above 10 µM, respectively.
Consider `OCCCn1ncc2ccc(Nc3ncc(F)c(Nc4ccc5c(c4)OCCO5)n3)cc21` [R935287, N4-(3,4-Ethylenedioxyphenyl)-5-fluoro-N2-[1-(3-hydroxypropyl)indazoline-6-yl]-2,4-pyrimidinediamine], for which the IC50 in experiment [1] is 0.403 µM; in experiment [2], above 10 µM.
For the compound `CNC(=O)CCn1ncc2ccc(Nc3nc(Nc4ccc5c(c4)OCCO5)ncc3F)cc21` [R935288, N2-(3,4-Ethylenedioxyphenyl)-5-fluoro-N4-[1-[2(N-methylaminocarbonyl)ethyl]-indazoline-6-yl]-2,4-pyrimidinediamine], the IC50 in experiment [1] is 1.58 µM; in experiment [2] it was above 10 µM.
For `CCOC(=O)CCn1ncc2ccc(Nc3nc(Nc4cccc(OC(C)C)c4)ncc3F)cc21` [R935289, N4-[1-(2-Ethoxycarbonylethyl)indazoline-6-yl]-5-fluoro-N2-(isopropoxyphenyl)-2,4-pyrimidinediamine], the IC50 in experiment [1] is 1.69 µM; in experiment [2] it was above 10 µM.
On the same counts, the results for `CC(C)Oc1ccc(Nc2nc(Nc3ccc4cnn(CCCO)c4c3)ncc2F)cc1` [R935290, 5-Fluoro-N2-[1-(3-hydroxypropyl)indazoline-6-yl]-N4-(4-isopropoxyphenyl)-2,4-pyrimidinediamine] are 0.34 µM and above 10 µM.
Take `CNC(=O)CCn1ncc2ccc(Nc3ncc(F)c(Nc4ccc(OC(C)C)cc4)n3)cc21` [R935291, 5-Fluoro-N4-(4-isopropoxyphenyl)-N2-[1-[2(N-methylamino)carbonyl]ethyl-indazoline-6-yl]-2,4-pyrimidinediamine]: the figures for the IC50 in experiment [1] and in experiment [2] were 1.36 µM and above 10 µM, respectively.
